Test results published in BigSolDB 2.1.

O=C(c1ccccc1)c1ccc(Cl)cc1
solubility (mole fraction)
Details | 278.15 K | 283.15 K | 288.15 K | 293.15 K | 298.15 K | 303.15 K | 308.15 K | 313.15 K | 318.15 K | 323.15 K
in acetone | 0.0863 | 0.0934 | 0.116 | 0.146 | 0.181 | 0.224 | 0.277 | 0.342 | 0.454 | 0.615
in acetonitrile | 0.0216 | 0.0258 | 0.0352 | 0.0438 | 0.0625 | 0.0858 | 0.131 | 0.19 | 0.307 | 0.616
in ethanol | 0.00817 | 0.0103 | 0.0124 | 0.0151 | 0.0195 | 0.0239 | 0.0318 | 0.043 | 0.06 | 0.0856
in ethyl acetate | 0.114 | 0.118 | 0.138 | 0.167 | 0.203 | 0.24 | 0.294 | 0.351 | 0.43 | 0.534
in isobutanol | 0.0102 | 0.0113 | 0.0138 | 0.0173 | 0.0225 | 0.0305 | 0.0408 | 0.0549 | 0.0821 | 0.123
in isopropanol | 0.00704 | 0.00886 | 0.0118 | 0.0153 | 0.0187 | 0.0223 | 0.0288 | 0.0398 | 0.0617 | 0.0896
in methanol | 0.00549 | 0.00622 | 0.00802 | 0.00943 | 0.012 | 0.0149 | 0.0203 | 0.027 | 0.0384 | 0.0594
in methyl acetate | 0.0971 | 0.109 | 0.134 | 0.164 | 0.196 | 0.239 | 0.289 | 0.354 | 0.417 | 0.494
in n-butanol | 0.0271 | 0.0304 | 0.0347 | 0.0394 | 0.0436 | 0.0478 | 0.0531 | 0.0677 | 0.0993 | 0.211
in n-butyl acetate | 0.133 | 0.142 | 0.156 | 0.182 | 0.212 | 0.248 | 0.285 | 0.329 | 0.383 | 0.454
in n-propanol | 0.0111 | 0.0128 | 0.0163 | 0.0205 | 0.0247 | 0.0325 | 0.0424 | 0.0571 | 0.0829 | 0.135
